71 molecules from ChEMBL document CHEMBL3507680, “University of Dundee, Gates Library screen for HepG2 cell viability” can be followed below.

A short description of the series: Human HepG2 cell viability assay in 384 well format. The format is toxicity, cell-based. Also on record: dose 125 nL, time 70.5 hour; concentration not given beside the values. As to conditions: HepG2 cells, read-out: Inhibition.
Regarding `O=C1CC(c2ccccc2)C2(CCN(Cc3ccccn3)CC2)N1` (stereo unspecified), the cytotoxicity at 70.5 h was -7.79%.
The same measure for `CN(CC1CC1)c1ccc2ccc(C(=O)NCCN3CCOCC3)cn12`: -5.52%; for `Cc1nc(N2CCCC2)nc2c1CN(C(=O)N1CCOCC1)CC2`: -14.3%; for `CC(C)CN1CCC2(CCN(Cc3ccsc3)CC2)C1=O`: 6.07%.
On to `COc1ccc(S(=O)(=O)N2CCCC3(CCCN3S(C)(=O)=O)C2)cc1` (stereo unspecified), for which the cytotoxicity at 70.5 h worked out at 8.26%.
Under `CS(=O)(=O)N1CCCC12CCCN(S(=O)(=O)c1cc(F)cc(F)c1)C2` (stereo unspecified) stands -5.59%; under `CNC(=O)[C@@]12CCC3(CCN(S(C)(=O)=O)CC3)[C@@H]1CN(S(C)(=O)=O)C2`, 1.46%.
The same measure for `Cc1nc(C)n(CC2CN(c3ncccn3)Cc3nccn3C2)n1` (stereo unspecified): -8.98%; for `COCc1ncn2c1CN(C(=O)C1CC=CC1)CC2`: -8.8%; for `O=C(Cc1ccccc1)N1CCC2(CC(=O)N(c3cccc(F)c3)C2)C1` (stereo unspecified): -4.78%.
The same measure for `O=C(c1ccoc1)N1CCC2(CC1)C(=O)Nc1ccccc12`: -2.01%; for `CCS(=O)(=O)N1Cc2nccn2CC(Cn2nc(C)nc2C)C1` (stereo unspecified): -13.6%; for `CN(C)C(=O)COC[C@]12COC[C@H]1CN(Cc1ccoc1)C2`: -6.16%.
For the molecule `O=C(c1cncnc1)N1CCCC(c2nccs2)C1` (stereo unspecified), the cytotoxicity at 70.5 h is -3.47%.
Take `c1cc(CN2CCCC(c3ccnc4nccn34)C2)ccn1` (stereo unspecified): the cytotoxicity at 70.5 h was -3.33%.
Under `Cc1cc(C)n(C2CCN(S(C)(=O)=O)CC2)n1` stands 9.79%.
The same measure for `O=S(=O)(N1CCCC1)N1CC(c2ccnc(Nc3ccccn3)n2)C1`: 8.07%; for `O=S1(=O)NC(c2ccnc(N3CCCCC3)n2)=Nc2ccccc21`: 7.4%.
`CN(C)c1cc(C2CCCN2C(=O)c2noc3c2CCCC3)ccn1` (stereo unspecified): the cytotoxicity at 70.5 h is -6.7%.
Under `COc1ccc2c(c1)c(-c1nc(C)ncc1CN)cn2C` stands 13.5%; under `Cc1cc(C)nc(N2CCC(c3ccnc(N(C)C)n3)CC2)n1`, -3.9%; under `COc1ccccc1N1CC(NC(=O)Cn2cc(C)nn2)CC1=O` (stereo unspecified), -7.03%.
For the molecule `CCN(CC)c1ncc2c(O)nc(C3CCNCC3)cc2n1`, the cytotoxicity at 70.5 h is -4.7%.
For `COCCN1CCCC(C)(c2cc(O)[nH]n2)C1` (stereo unspecified), the cytotoxicity at 70.5 h was found to be 1.15%.
For the molecule `CN(C)c1ncc2c(O)nc(C3CCCNC3)cc2n1` (stereo unspecified), the cytotoxicity at 70.5 h is -3.16%.
For the molecule `CN(C)c1nccc(C2CCN(c3ncccn3)CC2)n1`, the cytotoxicity at 70.5 h was -0.97%.
Under `CN1CCC(c2cccc(NCc3nccn3C)n2)CC1` stands 22.4%; under `CC(=O)N1CCC(c2cccc(NC3CCOCC3)n2)CC1`, -1.75%.
Under `COCCNc1ncc(-c2cccc(F)c2)c(-c2nccn2C)n1` stands 11%; under `CCOCCCNc1ncc(-c2cccc(F)c2)c(-c2nccn2C)n1`, -3.33%.
`O=C(CC1CCN(c2cccnn2)CC1)Nc1cccnc1`: the cytotoxicity at 70.5 h is -6.44%.
Under `CN(C)CCNC(=O)CC1CCN(c2cccnn2)CC1` stands -2.25%; under `CCNC(=O)C1(Cc2cc(-c3ccc(C)cc3)no2)CCCN(C)C1` (stereo unspecified), -5.63%; under `CN1CCC(c2cccc(NCc3ccncc3)n2)CC1`, -2.85%.
As for `COCCN1CCC1c1cc(N)nc(C)n1` (stereo unspecified), the cytotoxicity at 70.5 h was -2.65%.
Take `Cc1cc(C)n(C2CCN(S(=O)(=O)N3CCC(C)CC3)CC2)n1`: the cytotoxicity at 70.5 h is -3.62%.
The same measure for `CNc1nc(C)c(C(=O)NCC(C)(C)N2CCCCC2)s1`: -0.6%; for `CCCn1nc(C)c(-c2cncn2CC2(N(C)C)CCC(C)CC2)c1C` (stereo unspecified): -5.71%; for `CNC(=O)C1CN(c2ccnc(C)n2)CCN(C2CCOCC2)C1` (stereo unspecified): -1.96%.
Under `c1cnc(Nc2cc(CCC3CCNCC3)ccn2)cn1` stands 5.45%; under `CC(C)C(=O)N1CCCc2c(cnn2-c2ccccc2)C1`, -5.24%; under `Cc1cc2c(c(=O)n1CCC(=O)O)C=CC(C)(C)O2`, -2.47%.
The same measure for `CNC(=O)C1(CCCc2ccccn2)CCN1Cc1coc(C)n1` (stereo unspecified): 14.6%; for `Cc1ccc(CC2COCCN(Cc3ccccc3)C2)nc1` (stereo unspecified): -2.48%; for `CN1CCCC(Cc2cc(N(C)C)ncn2)C1` (stereo unspecified): -5.24%.
For the molecule `CC(Cn1cc(Cl)cn1)C(=O)Nc1ccc(CN2CCCCCC2)cc1` (stereo unspecified), the cytotoxicity at 70.5 h came out at 18.9%.
As for `COCC(=O)N1CCCCC1c1nc(C)c2c(n1)N(CC1CC1)C(=O)C2` (stereo unspecified), the cytotoxicity at 70.5 h was -2.8%.
The same measure for `NC(=O)N1CC2(CCNCC2)c2cc(Cl)ccc21`: -0.465%; for `C/C(=C\c1ccccc1)CN1CCCC(c2nnc3n2CCNCC3)C1` (stereo unspecified): -6.58%; for `COc1ccccc1CN1CCCCC1c1n[nH]cc1-c1cc(C)no1` (stereo unspecified): -6.18%.
Under `CN(C)c1ncc(-c2cncn2CCc2ccc3c(c2)OCCO3)cn1` stands -7.82%; under `Cc1nn(C)cc1-c1cncn1CCc1ccc2c(c1)OCCO2`, -9.48%; under `CCc1ccc(CN2CCCCC2c2n[nH]cc2-c2cc(C)no2)cc1` (stereo unspecified), -5.56%.
Turning to `CCn1nc(C)c(-c2cncn2CCN(C)C2CCCC2)c1C`, the cytotoxicity at 70.5 h is -7.35%.
The same measure for `Cc1cc(-c2nccs2)nc(C2CCN(Cc3ccncc3)CC2)n1`: -0.926%.
For the molecule `CNC[C@H]1CC[C@H](c2cc(CN(C)S(=O)(=O)N(C)C)n(C)n2)CC1`, the cytotoxicity at 70.5 h is -3.44%.
Regarding `CCCn1nc(C)c(-c2cncn2CCN(C)C2CCCC2)c1C`, the cytotoxicity at 70.5 h was -4.61%.
Under `CN(C)CCN1CCC2(CCN(C(=O)c3ccc(F)cc3)CC2)C1=O` stands -8.17%.
In the case of `O=C(C1CCCCC1)N1CCC2(CCCN2CC2CC2)CC1`, the cytotoxicity at 70.5 h is -2.81%.
Under `CN(C)C(=O)CN1C(=O)CCC12CCN(Cc1ccc(F)cc1)CC2` stands 5.3%; under `Cc1ccc(C(=O)N2CCC3(CC2)CC(N2CCCC2)C3)cc1`, -10.8%; under `COc1ccc(CN2CCN(C(C)=O)CC3(CC(=O)N(C)C3)C2)cc1` (stereo unspecified), -0.064%.
The same measure for `Cn1cc(CN2CCCC3(CCN(c4nncs4)C3)C2)cn1` (stereo unspecified): -0.185%.
The same measure for `CNC(=O)N1CCc2cc(C(=O)N(C)C)c(NCC3CC3)nc2CC1`: -12%; for `O=C(NCc1cnc2n1CCN(Cc1ccsc1)CC2)C1CCC1`: -10.8%; for `CCS(=O)(=O)N[C@@H]1CN(Cc2cc(C)on2)C[C@@H]2CCCO[C@@H]21`: -10.1%.
`Cc1cccc(CN2C(=O)CCC23CCN(Cc2cccn2C)CC3)n1`: the cytotoxicity at 70.5 h was -3.65%.
The same measure for `CN(C)CCN1C(=O)CCC12CCN(C(=O)c1cccnc1)CC2`: -4%; for `CC(C)CN1CCN(C)C2(CCN(Cc3ccsc3)CC2)C1=O`: 0.403%; for `CCN1CCC2(CCC(=O)N2Cc2cccc(C)n2)CC1`: -4.89%.
The same measure for `Cc1cc(CN2C[C@@H]3CCCO[C@@H]3[C@H](Nc3ccccn3)C2)no1`: -8.77%.
